ChEMBL document CHEMBL5523703, “Modulators for palmitoylation of proteins and small molecules” (Eur J Med Chem, 2024)

Biological target: Acyl-protein thioesterase 2 (Homo sapiens, UniProt O95372)
Test: Inhibition of APT2 (unknown origin)
Conditions: not given

Chain of Acyl-protein thioesterase 2 (O95372 whole entry): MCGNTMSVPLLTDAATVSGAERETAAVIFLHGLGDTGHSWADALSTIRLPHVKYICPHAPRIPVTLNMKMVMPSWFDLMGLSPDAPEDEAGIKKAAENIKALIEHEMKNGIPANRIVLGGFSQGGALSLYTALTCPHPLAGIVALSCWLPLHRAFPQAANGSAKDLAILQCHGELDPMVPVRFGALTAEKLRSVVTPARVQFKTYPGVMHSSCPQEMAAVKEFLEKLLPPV

C#CCCCCCCCC[C@@H]1OC(=O)[C@H]1CCCCS(=O)(=O)CCCN(C)C and CCCCCCCCCC[C@@H]1OC(=O)[C@H]1CCCCS(=O)(=O)CCCN(C)C are within 1.5-fold of each other in IC50: 32.4 nM for the first, 36.7 nM for the second.

Compared with C#CCCCN(C)CCCS(=O)(=O)CCCC[C@@H]1C(=O)O[C@H]1CCCCCCCCCC, C#CCCCCCCCC[C@@H]1C(=O)O[C@H]1CCc1ccc(OC)c(OC)c1 is 2.7-fold lower in IC50: 64.4 nM for the first, 23.7 nM for the second.

CCCCCCCCCC[C@@H]1C(=O)O[C@H]1CCc1ccc(OC)c(OC)c1 [PALMOSTATIN B] gave an IC50 of 19.6 nM.

System: not listed separately
Test: cells
Conditions: Homo sapiens, HEK-293T, 24 h

Compared with Cc1c(-c2ccnc(C(F)(F)F)c2)ncn1CC(=O)Nc1ccc(-c2cnccn2)cn1 [ZAMAPORVINT], Cc1cc(-c2ncc(CC(=O)Nc3ccc(-c4cnccn4)cn3)cc2C)ccn1 [WNT-974] is 3.1-fold higher in IC50: 0.064 nM for the first, 0.2 nM for the second. The first is the more potent here.

Compound Cn1c(=O)c2c(ncn2CC(=O)Nc2ccc(-c3ccccc3)nn2)n(C)c1=O [ETC-159] has an IC50 of 2.9 nM.

Species on record: Homo sapiens
Test: Inhibition of ZDHHC (unknown origin) at 20 uM relative to control
Conditions: not given

Compared with C=CC(=O)N(C)CCCCCCCCCCCCCC, N#CCC(=O)NCCc1ccc(OC(=O)c2cccc(Oc3ccccc3)c2)cc1 is higher in inhibition: 67.3% for the first, 71.3% for the second.

System: not listed separately
Test: Inhibition of Wnt/beta-catenin signalling in HEK293 cells assessed as reduction in luciferase activity incubated for 24 hrs by TOPFlash luciferase reporter assay
Format: cell-based
Conditions: Homo sapiens, HEK293, 24 h

Going from Cc1ccc2nc(NC(=O)CSc3nc4c(c(=O)n3-c3ccccc3)SCC4)sc2c1 to Cc1ccc2nc(NC(=O)CSc3nc4c(c(=O)n3C)SC(C)C4)sc2c1 (centres undefined), the IC50 falls from 28 nM to 15 nM (1.9-fold). The second is the more potent here.

First: COc1ccc(-n2nc(C(=O)NCC(=O)Nc3nc4ccc(OC)cc4s3)c3ccccc3c2=O)cc1
Second: CCOc1ccc(NC(=O)CSc2nnc(-c3ccncc3)n2-c2ccccc2)cc1
The IC50 of the first is 1.6-fold lower: 58 nM for the first, 90 nM for the second. The first is the more potent here.

Going from O=S(=O)(c1ccc2oc(-c3cccnc3)nc2c1)c1ccc2oc(-c3cccnc3)nc2c1 to CC(C)Cc1c(C#N)c(N)nc(SCC(=O)c2ccc(-c3ccccc3)cc2)c1C#N, the IC50 falls from 16 nM to 10 nM (1.6-fold). The second is the more potent here.

Work on CCc1cc(=O)oc2c(C)c(OCC(=O)Nc3ccc(N4CCCCC4)cc3)ccc12 yielded an IC50 of 710 nM.

Biological target: T1, Phosphatidylserine lipase ABHD16A (Homo sapiens, UniProt O95870)
T1 sequence (O95870 whole entry): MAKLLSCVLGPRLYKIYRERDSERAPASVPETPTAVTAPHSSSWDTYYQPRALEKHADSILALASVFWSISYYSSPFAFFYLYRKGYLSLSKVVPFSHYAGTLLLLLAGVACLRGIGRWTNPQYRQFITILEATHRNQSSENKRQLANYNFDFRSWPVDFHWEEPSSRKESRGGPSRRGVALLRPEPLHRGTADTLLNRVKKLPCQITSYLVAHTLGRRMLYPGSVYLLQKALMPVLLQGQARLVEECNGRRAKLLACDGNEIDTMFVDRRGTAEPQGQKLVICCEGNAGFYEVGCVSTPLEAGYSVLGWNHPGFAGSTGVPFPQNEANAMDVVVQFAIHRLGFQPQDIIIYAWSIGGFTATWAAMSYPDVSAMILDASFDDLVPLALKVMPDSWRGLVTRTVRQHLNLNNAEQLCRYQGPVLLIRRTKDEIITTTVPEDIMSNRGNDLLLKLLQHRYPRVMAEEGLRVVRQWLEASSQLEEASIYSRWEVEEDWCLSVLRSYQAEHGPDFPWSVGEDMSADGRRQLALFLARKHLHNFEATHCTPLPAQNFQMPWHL
Test: Inhibition of recombinant human ABHD16A expressed in HEK293T cells incubated for 1 hr by fluorescence based analysis
Format: cell-based
Conditions: not given

First: NC(=O)CCCC/C=C1\C(=O)OC1CCc1ccccc1 (centres undefined)
Second: CCCCCCCCCCCCCC1OC(=O)/C1=C\CCCCC(N)=O (centres undefined)
The IC50 of the first is higher: no less than 10000 nM for the first, 200 nM for the second. The second is the more potent here.

Compared with COc1nn(-c2cccc([N+](=O)[O-])c2)c(=O)o1, COc1nn(-c2ccc(F)cc2)c(=O)o1 is 2-fold lower in IC50: 60 nM for the first, 30 nM for the second. The second is the more potent here.

System: not listed separately
Test: Inhibition of SPT (unknown origin)
Set-up: species or system Homo sapiens
Conditions: not given

Going from CCCCCC[C@@H](O)CCCCCC/C=C/[C@H](OC(C)=O)[C@@H](O)[C@H](O)[C@H](N)C(=O)O to CCCCCC[C@@H](O)CCCCCC/C=C/[C@H](O)[C@@H](O)[C@H](O)[C@H](N)C(=O)O, the IC50 falls from 100 nM to 20 nM (5-fold).

Going from CCCCCC[C@@H](O)CCCCCCCC[C@@H](O)[C@H](N)C(=O)O to CCCCCC[C@@H](O)CCCCCCCCC[C@H](CO)C(=O)O, the IC50 falls from 224 nM to 24 nM (9.3-fold). The second is the more potent here.

CC(C)CCCC(=O)CCCCCCC(=O)CCN(O)C(=O)[C@@H](N)CO showed an IC50 of 21 nM.

Biological target: T2, Palmitoyl-protein thioesterase ABHD10, mitochondrial (Homo sapiens, UniProt Q9NUJ1)
T2 sequence (Q9NUJ1 whole entry): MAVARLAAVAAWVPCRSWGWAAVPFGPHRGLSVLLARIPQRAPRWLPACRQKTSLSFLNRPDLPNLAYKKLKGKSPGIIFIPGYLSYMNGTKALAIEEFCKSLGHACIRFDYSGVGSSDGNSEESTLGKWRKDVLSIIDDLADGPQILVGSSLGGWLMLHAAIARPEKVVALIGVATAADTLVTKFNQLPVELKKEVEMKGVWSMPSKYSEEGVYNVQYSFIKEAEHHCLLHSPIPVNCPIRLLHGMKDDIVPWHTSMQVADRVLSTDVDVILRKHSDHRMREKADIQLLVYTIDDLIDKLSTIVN
Test: Inhibition of ABHD10 (unknown origin)
Conditions: not given

Compared with CC[C@@]1(c2ccc(C)cc2)C(=O)N(C(=O)OC(C)C)N1C(=O)OC(C)C, CC[C@@]1(c2cccc(C)c2)C(=O)N(C(=O)OC)N1C(=O)OC is 7-fold higher in IC50: 30 nM for the first, 210 nM for the second. The first is the more potent here.

In the case of COc1ccc([C@@]23Oc4cc(OC)cc(OC)c4[C@]2(O)[C@@H]2OC(=O)[C@@H]2[C@H]3c2ccccc2)cc1, the IC50 is reported as 100 nM.
